# Test results as given in paper PMC11374953, “Heteroaryl derivatives of suvorexant as OX1R selective PET ligand candidates: Cu-mediated ^18F-fluorination of boroxines, in vitro and initial in vivo evaluation” (EJNMMI Research, 2024).
# Assays:
# human OX1R = target: T1, human OX1R (Homo sapiens, UniProt O43613); set-up: method as in PMID 32669442; details: data from previous work, cited from earlier work
# T1 construct: host or cells: HEK293T
# T1 sequence (O43613 1-425): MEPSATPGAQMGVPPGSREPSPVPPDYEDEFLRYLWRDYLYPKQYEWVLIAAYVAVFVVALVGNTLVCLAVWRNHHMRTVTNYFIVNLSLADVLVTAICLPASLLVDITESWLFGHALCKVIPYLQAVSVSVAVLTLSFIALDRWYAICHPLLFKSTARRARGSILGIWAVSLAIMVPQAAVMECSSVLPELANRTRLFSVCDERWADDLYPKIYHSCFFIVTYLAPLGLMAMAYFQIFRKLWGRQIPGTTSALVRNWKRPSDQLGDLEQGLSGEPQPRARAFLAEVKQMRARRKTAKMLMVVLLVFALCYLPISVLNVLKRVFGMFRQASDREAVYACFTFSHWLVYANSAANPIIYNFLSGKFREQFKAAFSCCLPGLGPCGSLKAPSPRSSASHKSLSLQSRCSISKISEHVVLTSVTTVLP
# human OX2R = target: T2, human OX2R (Homo sapiens, UniProt O43614); set-up: method as in PMID 32669442; details: HEK293T homogenates; data from previous work; read-out: Ki values (nM ± SEM) hOX2R; cited from earlier work
# T2 construct: host or cells: HEK293T
# T2 sequence (O43614 1-444): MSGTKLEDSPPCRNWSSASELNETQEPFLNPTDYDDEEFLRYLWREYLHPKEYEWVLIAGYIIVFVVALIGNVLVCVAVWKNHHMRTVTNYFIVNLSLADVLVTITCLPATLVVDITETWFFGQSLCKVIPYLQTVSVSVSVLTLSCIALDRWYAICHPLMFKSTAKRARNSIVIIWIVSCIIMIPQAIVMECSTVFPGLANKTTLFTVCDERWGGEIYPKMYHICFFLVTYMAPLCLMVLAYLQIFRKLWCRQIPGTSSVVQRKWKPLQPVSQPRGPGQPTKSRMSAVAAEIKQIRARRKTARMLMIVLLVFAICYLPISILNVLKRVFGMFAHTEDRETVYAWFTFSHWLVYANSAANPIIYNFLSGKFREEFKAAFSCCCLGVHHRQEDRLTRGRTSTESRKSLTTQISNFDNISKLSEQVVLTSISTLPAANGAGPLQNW
# [1] = Partition coefficient logD7.4 (n-octanol/PBS); assay type: physicochemical; details: n-octanol/PBS pH 7.4, mean ± SD
# Method: Phosphate-buffered saline (PBS, 480 µL, pH 7.4) and n-octanol (500 µL) were placed in an Eppendorf tube. The radioligand (30–50 kBq, [^18F]1c or [^18F]1f) in PBS (20 µL) was added to the tube, vortexed for 1 min and centrifuged (20,000g, 1 min). Three samples (100 µL) from each layer were collected and measured by a γ-counter (Wallac Wizard 1470, PerkinElmer, USA). After the average cpm values from the triplicate measurements of each layer were calculated, the logD7.4 was determined as the logarithm of the ratio of n-octanol (mean cpm) to PBS (mean cpm). The mean logD7.4 value ± standard deviation was determined by at least three independent experiments each performed in triplicates.
# [2] = Plasma protein binding (MicroSpin G-50 columns); assay type: in vitro ADME; details: human plasma, 37 °C, read-out: plasma protein binding (PPB) (converted)
# Method: The radiotracer (100–200 kBq, [^18F]1c or [^18F]1f) in PBS (2 µL) was incubated with human plasma (100 µL) at 37 °C for 10 min. After preconditioning of the microcolumns according to the instructions of the manufacturer (illustra MicroSpin G-50 columns from GE Healthcare), a sample (40 µL) of was applied to the resin. The microspin tubes were centrifuged (2000g, 2 min) and both, eluate and resin were measured by a γ-counter (Wallac Wizard 1470, PerkinElmer, USA). The PPB was calculated as percentage of bound ligand (cpm of resin) from the total amount of radioactivity (sum of cpm of resin and eluate). Samples from incubation of the radiotracer in saline instead of plasma served as negative control. The mean PPB value was determined from at least two independent experiments each performed in triplicate.
# [3] = Radioligand stability in human plasma and human serum; assay type: in vitro ADME; details: 37 °C, up to 120 min, radio-HPLC
# Method: (§1) The radioligand (1–2 MBq, [^18F]1c or [^18F]1f) in PBS (20 µL) was incubated with human serum, human plasma or rat plasma (400 µL) at 37 °C. Samples (50 µL) were taken at 5, 10, 15, 30, 60 and 120 min, mixed with aqueous TFA (10%, 50 µL) and centrifuged (20,000g, 2 min). The supernatant (20 µL) was analyzed by radio-HPLC.
# [4] = Radioligand stability in rat plasma; assay type: in vitro ADME; details: 37 °C, up to 120 min, radio-HPLC
# Method: as §1
# [5] = Dynamic small animal PET imaging of the rat brain; assay type: in vivo
# Method: Small animal PET experiments in rats were performed to allow for an initial comparison in single animals that were injected with [^18F]1c or [^18F[1f alone, after preinjection of suvorexant (1 mg/kg), and after pretreatment with cyclosporine A (25 mg/kg) (Fig. 3). […] Therefore, to elucidate the P-gp-mediated transport of the compounds, specific experiments were performed.
# Fig. 3 Time-activity curves and horizontal PET slices of the rat brain after injection of [^18F]1c (A, C) and [^18F]1f (B, D). Single animals were injected with the tracer alone (“control”, blue) compared to animals preinjected with suvorexant (1 mg/kg, 15 min prior to tracer injection, each n = 1; “blocking”, red) or cyclosporine A (25 mg/kg, 30 min prior to tracer injection, each n = 1; green)
# Ten- to 13-week-old female CD Sprague–Dawley rats (250–300 g, Charles River) were housed with free access to standard rat chow (Purina) and water at all times. Dynamic small animal PET scans were performed on an Inveon™ microPET scanner (Siemens Healthineers AG, Erlangen, Germany). All rats were continuously anesthetized using isoflurane (2–3% in oxygen, 0.8 L/min) and placed on a heating pad (37 °C) during the PET scan. Rats were injected intravenously in the tail vein with the radioligand in saline (5–15 MBq in 200–300 µL, [^18F]1c or [^18F]1f). Pretreatment with suvorexant (1 mg/kg, 15 min prior to tracer injection) or cyclosporine A (25 mg/kg, […] to tracer injection) was done intravenously. Dynamic PET scans were acquired from 0 to 60 min p.i. and consisted of 23 frames with increasing duration (12 × 10 s, 3 × 1 min, 5 × 5 min and 3 × 10 min). Subsequently, an attenuation scan with a rotating Co-57 point source was performed. The obtained dynamic emission images were subjected to an attenuation and decay correction. After the iterative maximum a posteriori (MAP) estimation for the image reconstruction, regions of interest (ROIs) were drawn for the whole brain. Computational processing of the PET scans was done with the software PMOD (PMOD Technologies LLC). The data obtained were finally converted into values expressed as percent of injected dose per gram (%ID/g).
# [6] = cited from earlier work
smiles,measurement,setting,value
CC[C@H](C)[C@H]1CN(c2nc3cc(Cl)ccc3o2)CCCN1C(=O)c1cc(C)ccc1-n1nccn1 [JH112],Ki,"human OX1R; HEK293T membranes, read-out: Ki values (nM ± SEM) hOX1R",0.72 ± 0.08 nM
same,OX1R selectivity Ki(hOX2R)/Ki(hOX1R),human OX1R; Ki for OX2R divided by Ki for OX1R,75
same,Ki,human OX2R,54 ± 7 nM
"CC[C@H](C)[C@H]1CN(c2nc3ccc([18F])cc3s2)CCCN1C(=O)c1cc(C)ccc1-n1nccn1 [[^18F]1f, {(S)-2-[(S)-sec-butyl]-4-(6-[^18F]fluorobenzo[d]thiazol-2-yl)-1,4-diazepan-1-yl}[5-methyl-2-(2H-1,2,3-triazol-2-yl)phenyl]methanone]",logD,[1],2.37
same,fraction unbound at 10 min,[2],0.23
same,stability in human plasma,[3],stable over 120 min
same,stability in human serum,[3],stable over 120 min
same,stability in rat plasma,[4],stable over 120 min
same,brain uptake after pretreatment with cyclosporine A,"[5]; cyclosporine A 25 mg/kg i.v. prior to tracer, n = 1",0.18 %ID/g
same,brain uptake after preinjection of suvorexant,"[5]; suvorexant 1 mg/kg i.v. 15 min prior to tracer, n = 1",not affected
same,time of maximum brain uptake p.i.,[5]; tracer alone i.v.,24 s
same,maximum brain uptake,"[5]; tracer alone i.v., whole brain, n = 1",0.15 %ID/g
Cc1ccc(-n2nccn2)c(C(=O)N2CCN(c3nc4cc(Cl)ccc4o3)CC[C@H]2C)c1 [suvorexant],protein-bound fraction in the blood,[6],> 99%
